Assay results from EP0363275A1, “Low molecular weight vectors specific for sugar receptors, their conjugates and processes for their preparation” (IRE-CELLTARG S.A., priority 1988, dated 1990).
Values joined by “and” are separate entries in the source; they are usually repeats but may differ in a detail not shown here. Identical values can stand only once. “Also recorded” adds a separate entry of the source.

Assays:
malaria murine = assay: Therapeutic activity of amino-acid derivatives of primaquine in the murine malaria model; assay type: in vivo
[1] = target: T1, récepteur à asialoglycoprotéine des hépatocytes (Rattus norvegicus, UniProt P02706+P08290); assay: Competition with ¹²⁵I HSA gal for binding to cultured hepatocytes at 4°C; conditions: for affinité pour le récepteur: cultured rat hepatocytes
T1 construct: le récepteur à galactoses présent à la membrane sinusoïdale des hépatocytes; endogenous in cells; host or cells: primary rat hepatocytes, isolated and cultured 16 h
T1 sequence (P02706 1-284): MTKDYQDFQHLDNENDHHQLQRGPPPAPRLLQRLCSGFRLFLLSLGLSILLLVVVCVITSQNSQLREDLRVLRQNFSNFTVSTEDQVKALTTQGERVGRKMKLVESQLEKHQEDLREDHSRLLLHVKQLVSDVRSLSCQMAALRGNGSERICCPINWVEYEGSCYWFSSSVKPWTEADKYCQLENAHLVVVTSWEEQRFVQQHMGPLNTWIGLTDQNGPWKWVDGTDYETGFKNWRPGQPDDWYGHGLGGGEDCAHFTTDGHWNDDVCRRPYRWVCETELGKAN
T1 sequence (P08290 1-301): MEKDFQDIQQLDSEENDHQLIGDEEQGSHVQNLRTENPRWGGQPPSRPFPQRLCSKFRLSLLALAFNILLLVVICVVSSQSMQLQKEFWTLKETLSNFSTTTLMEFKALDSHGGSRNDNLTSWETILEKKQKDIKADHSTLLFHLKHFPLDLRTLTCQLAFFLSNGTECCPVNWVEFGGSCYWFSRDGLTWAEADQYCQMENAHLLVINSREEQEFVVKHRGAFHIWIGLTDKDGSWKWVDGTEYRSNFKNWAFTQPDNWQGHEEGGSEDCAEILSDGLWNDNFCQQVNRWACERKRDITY
Experimental: D'autres caractéristiques et avantages de la présente invention apparaîtront à la lumière des exemples qui vont suivre. • - La figure 1 : Expériences de compétition entre l'HSA gal marqué à l'iode-125 et différentes concentrations molaires en HSA gal non radioactives (●) ou en composés glycosylés (mono O bi □ triantenne ▲ ) non radioactifs. Les cellules mises en culture depuis 16 h. sont incubées à 4°C pendant 4 h. en présence de 1 ml de milieu contenant 50 ng d'¹²⁵I HSA gal et les différentes concentrations en produits non radioactifs. Après l'incubation, les cellules sont lavées et la radioactivité qui leur est associée, mesurée. Les résultats sont exprimés en pourcentage d'¹²⁵I HSA gal qui reste associé aux cellules en fonction du logarithme de la concentration molaire en compétiteur. • - La figure 2 : Expériences de compétiton entre l'HSA gal marqué à l'iode-125 et différentes concentrations molaires en galactoses d'HSA gal ou de composés glycosylés (mono O bi □ et triantenne ▲ )non radioactifs. Les cellules sont traitées comme décrit dans la figure 1 et les résultats sont exprimés en pourcentage d'[…] HSA gal qui reste associé aux cellules en fonction du logarithme de la concentration molaire en galactose du compétiteur. • - La figure 3 : Distribution tissulaire de la triantenne marquée au tritium. Différentes concentrations en triantenne ³H sont administrées par voie intraveineuse à des souris OF₁. Trois minutes après l'injection, les animaux sont sacrifiés. Le sang et les différentes organes sont prélevés, homogénéisés et la radioactivité qui leur est associée, mesurée. Les résultats sont exprimés en pourcentage de la dose totale injectée et représentent la moyenne + déviation standard de 3 expériences. • - La figure 4 : Distribution tissulaire de la triantenne marquée au tritium. Des souris ont reçu par voie i.v. différentes concentrations de triantenne ³H. Les animaux sont sacrifiés 3 min. après l'injection. Le sang et les différents organes sont prélevés, homogénéisés et la radioactivité qui leur est associée, mesurée. Les résultats sont présentés en pourcentage de la dose injectée par gr. de tissu et représentent la moyenne + déviation standard de 3 expériences. • - La figure 5 : Capture hépatique de la triantenne marquée au tritium. Différentes concentrations en triantenne ³H sont injectées par voie i.v. à des souris OF₁. La radioactivité associée au foie est mesurée 3 min. après l'injection. Les valeurs sont exprimées en ng de galactose associés au foie en fonction des ng de galactoses injectés. • - La figure 6 : Distribution tissulaire de la triantenne marquée au tritium (a.) ou au technetium (b.). Une concentration de 100 µg en galactoses de triantenne radioactive est injectée par voie i.v. à des souris OF₁. Les animaux sont sacrifiés 3 min. après l'injection. Le sang et les différents organes sont prélevés, homogénéisés et la radioactivité qui leur est associée, mesurée. Les résultats sont exprimés en pourcentage de la dose totale administrée (case supérieure) ou en pourcentage de la dose totale injectée par gr. de tissu (case inférieure). Ils représentent la moyenne + déviation standard de 3 expériences.
L'étude in vitro des vecteurs hépatotropes de faible poids moléculaire a été effectuée sur des hépatocytes de rats isolés et mis en culture.
L'affinité relative a été déterminée par une expérience de compétition entre le vecteur et une néoglycoprotéine connue pour sa haute affinité pour les récepteurs à galactoses, soit l'albumine humaine
Afin de déterminer si les hépathocytes fixent spécifiquement les différents dérivés glycosylés (monoantenne = 3 galactoses terminaux; biantenne = 6 galactoses terminaux; triantenne = 9 galactoses terminaux), des expériences de compétition pour le récepteur à asialoglycoprotéines entre l'HSA gal et les différents composés ont été réalisées. […]

récepteur d'Ashwell = target: T2, récepteur d'Ashwell (Rattus norvegicus, UniProt P02706+P08290); assay: Binding sites and Kd of triantenne on hepatocytes; conditions: number of sites
T2 construct: endogenous in cells
T2 sequence (P02706 1-284): T1 sequence (P02706 1-284)
T2 sequence (P08290 1-301): T1 sequence (P08290 1-301)

[2] = Blood disappearance and tissue distribution after i.v. administration (Example 7); assay type: in vivo, souris
Source text: In vivo, on a étudié la disparition sanguine ainsi que la distribution tissulaire de la triantenne suite à son administration intra-veineuse à des souris.

hépatocytes = assay: Uptake (internalisation) by hepatocytes at 37°C; assay type: cell-based, rat; conditions: short periods (120 min)
Experimental: A 37°C, les récepteurs intériorisent efficacement la triantenne. Par comparaison avec la capture de la macromolécule, ASH gal, les hépatocytes incubés pendant de courtes périodes (120 min), intériorisent jusqu'à 4 fois plus de molécules de triantenne.
Ce fait pourrait s'expliquer par la formation préférentielle de complexes ligand-récepteur à vitesse de dissociation lente, dans le cas de la triantenne.

[3] = design: species or system souris OF₁; conditions: in vivo, iv
Experimental: D'autres caractéristiques et avantages de la présente invention apparaîtront à la lumière des exemples qui vont suivre. • - La figure 1 : Expériences de compétition entre l'HSA gal marqué à l'iode-125 et différentes concentrations molaires en HSA gal non radioactives (●) ou en composés glycosylés (mono O bi □ triantenne ▲ ) non radioactifs. Les cellules mises en culture depuis 16 h. sont incubées à 4°C pendant 4 h. en présence de 1 ml de milieu contenant 50 ng d'¹²⁵I HSA gal et les différentes concentrations en produits non radioactifs. Après l'incubation, les cellules sont lavées et la radioactivité qui leur est associée, mesurée. Les résultats sont exprimés en pourcentage d'¹²⁵I HSA gal qui reste associé aux cellules en fonction du logarithme de la concentration molaire en compétiteur. • - La figure 2 : Expériences de compétiton entre l'HSA gal marqué à l'iode-125 et différentes concentrations molaires en galactoses d'HSA gal ou de composés glycosylés (mono O bi □ et triantenne ▲ )non radioactifs. Les cellules sont traitées comme décrit dans la figure 1 et les résultats sont exprimés en pourcentage d'[…] HSA gal qui reste associé aux cellules en fonction du logarithme de la concentration molaire en galactose du compétiteur. • - La figure 3 : Distribution tissulaire de la triantenne marquée au tritium. […]

[4] = among amino-acid derivatives of primaquine
[5] = result in words, hepatocytes, 4°C

COc1cc(NC(C)CCCNC(=O)[C@@H](N)CCC(=O)O)c2ncccc2c1 (stereo partly drawn) [L-glutamyl-Pq]
index thérapeutique (malaria murine; [4]): meilleur index thérapeutique

COc1cc(NC(C)CCCNC(=O)C(N)CCCCN)c2ncccc2c1 [L-lysyl-Pq]
activité (malaria murine; [4]): meilleure activité
toxicité (malaria murine; compared with primaquine): toxicité plus élevée que celle de la primaquine

Cbz-Asp-(6-amino Hex-Tris tri Gal) [Monoantenne]
B=Ic50 (molaire en gal.) ([1]; molar concentration in galactoses of the competitor inhibiting 50 % of ¹²⁵I HSA gal binding, hepatocytes, 4°C, 4 h): non déterminable
A=Ic 50 (molaire) ([1]; molar concentration of competitor inhibiting 50 % of ¹²⁵I HSA gal binding, hepatocytes, 4°C, 4 h): non déterminable
affinité pour le récepteur ([1]; result in words): ne présentent d'affinité significative
compétition avec l'HSA gal iodiné pour le récepteur à asialoglycoprotéine [1, 5]: n'entre pas en compétition; also recorded: se fixe aspécifiquement sur les cellules

Cbz-Asp-Asp-tri(-6-amino Hex-Tris tri Gal) [Triantenne]
sites de haute affinité (récepteur d'Ashwell): 56370 sites
sites de plus faible affinité (récepteur d'Ashwell): 490500 sites
quantité accumulée par les hépatocytes ([2]; 5 min after injection): > 40 % de la quantité administrée
quantité interagissant avec les autres organes ([2]; 5 min after injection): < 2%
rapport des concentrations spécifiques du foie et des reins ([2]; after 10 min): 10
molécules captées par le foie par rapport à l'ASH gal ([2]; comparable number of molecules, after 5 min): ~2 fois
disparition sanguine ([2]; result in words): éliminée très rapidement de la circulation sanguine
rapport des concentrations spécifiques du foie et des reins ([2]; start value): 1.5
affinité par rapport à celle de la biantenne ([1]; ratio triantenne / biantenne): ~100 fois and 60 fois
affinité exprimée en concentration molaire en galactoses, par rapport à l'HSA gal ([1]; result in words): du même ordre de grandeur
affinité pour le récepteur ([1]; result in words): la plus haute affinité pour le récepteur; also recorded: affinité importante
compétition avec l'HSA gal iodiné pour le récepteur à asialoglycoprotéine [1, 5]: induit une diminution de la radioactivité associée aux cellules
molécules intériorisées par rapport à l'ASH gal (hépatocytes): ≤ 4 fois
matériel radioactif associé au sang ou au plasma [3]: ≤ 10 % de la dose initiale administrée
radioactivité associée aux autres organes (rate, coeur, poumons, muscles, estomac, duodenum, colon, rectum) [3]: < 5%

Cbz-Asp bis(-6-amino Hex-Tris tri Gal) [Biantenne]
affinité pour le récepteur ([1]; result in words): affinité importante
compétition avec l'HSA gal iodiné pour le récepteur à asialoglycoprotéine [1, 5]: induit une diminution de la radioactivité associée aux cellules; also recorded: entre effectivement en compétition
